Legend:
human IRAK-4 = human IRAK-4 (Homo sapiens (Human), UniProt Q9NWZ3); test: Measurement of human IRAK-4 inhibitory activity (TR-FRET, peptide substrate phosphorylation, 10 μM ATP); format: biochemical; details: 1 nM IRAK-4, 10 μM ATP, 23° C., 30 minutes; average values
In short: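 With 1 nM IRAK-4, 0.5 μM biotinylated peptide and 10 μM ATP, compound incubated 30 min at 23 °C in 50 mM HEPES pH 7.2 with Mg2+/Mn2+. Stopped with EDTA plus europium-cryptate anti-phosphopeptide antibody and streptavidin-XL665, 60 min at 23 °C. Activity taken as the 665/620 nm TR-FRET ratio.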

[1] = tested on: LPS-stimulated TNFα production in THP-1 cells; test: LPS-stimulated TNFα production inhibition test using human acute monocytic leukemia cell strain THP-1; format: cell-based; details: Homo sapiens, THP-1, 4 h, LPS 2.5 ng/mL, average values
In short: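 Readout was HTRF-measured TNFα in supernatants, calibrated against a standard curve, after LPS challenge (2.5 ng/mL final, 4 h) of THP-1 cells pretreated 1 h at 37 °C with compound. Unstimulated wells defined 100% suppression and vehicle wells 0%. IC50 was fitted with a 4-parameter logistic model.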

Chain of human IRAK-4 (Q9NWZ3 whole entry): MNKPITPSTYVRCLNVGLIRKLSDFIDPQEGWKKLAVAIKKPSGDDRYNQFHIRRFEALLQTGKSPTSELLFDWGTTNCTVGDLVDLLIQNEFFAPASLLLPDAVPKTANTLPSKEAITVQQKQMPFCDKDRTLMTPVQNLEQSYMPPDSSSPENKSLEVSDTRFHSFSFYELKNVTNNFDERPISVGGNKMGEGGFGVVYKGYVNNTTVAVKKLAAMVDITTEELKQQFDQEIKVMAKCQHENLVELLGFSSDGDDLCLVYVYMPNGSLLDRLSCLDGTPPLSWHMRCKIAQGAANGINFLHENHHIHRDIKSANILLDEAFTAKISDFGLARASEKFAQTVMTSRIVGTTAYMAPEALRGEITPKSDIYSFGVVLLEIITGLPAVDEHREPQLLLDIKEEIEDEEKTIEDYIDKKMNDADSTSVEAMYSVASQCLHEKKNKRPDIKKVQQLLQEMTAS

IC50 (human IRAK-4) [nM] | IC50 [1] [nM] | Structure (SMILES)
1.73 | 55 | C[C@H]1CN(C(=O)c2nccs2)CCN1[C@H]1C[C@@H](C(=O)Nc2nc3ccc(-c4cnc(CO[C@H]5CCC[C@@H]5O)nc4)cc3s2)C1 [b-04-31]
1.57 | 50 | Cc1nc(C)c(C(=O)N2CCN([C@H]3C[C@@H](C(=O)Nc4nc5ccc(-c6cnc(CO[C@H]7CCC[C@@H]7O)nc6)cc5s4)C3)[C@@H](C)C2)s1 [b-04-32]
1.99 | 55 | C[C@H]1CN(C(=O)c2ccno2)CCN1[C@H]1C[C@@H](C(=O)Nc2nc3ccc(-c4cnc(CO[C@H]5CCC[C@@H]5O)nc4)cc3s2)C1 [b-04-33]
1.65 | 66 | C[C@H]1CN(C(=O)c2cnccn2)CCN1[C@H]1C[C@@H](C(=O)Nc2nc3ccc(-c4cnc(CO[C@H]5CCC[C@@H]5O)nc4)cc3s2)C1 [b-04-34]
2.08 | 37 | C[C@H]1CN(C(=O)c2ccnc(C(F)(F)F)c2)CCN1[C@H]1C[C@@H](C(=O)Nc2nc3ccc(-c4cnc(CO[C@H]5CCC[C@@H]5O)nc4)cc3s2)C1 [b-04-35]
0.9 | 48 | Cc1nc(C(=O)N2CCN([C@H]3C[C@@H](C(=O)Nc4nc5ccc(-c6cnc(CO[C@H]7CCC[C@@H]7O)nc6)cc5s4)C3)[C@@H](C)C2)co1 [b-04-36]
0.81 | 35 | C[C@H]1CN(C(=O)c2ccc(Cl)cn2)CCN1[C@H]1C[C@@H](C(=O)Nc2nc3ccc(-c4cnc(CO[C@H]5CCC[C@@H]5O)nc4)cc3s2)C1 [b-04-37]
0.85 | 87 | C[C@H]1CN(C(=O)c2cncnc2)CCN1[C@H]1C[C@@H](C(=O)Nc2nc3ccc(-c4cnc(CO[C@H]5CCC[C@@H]5O)nc4)cc3s2)C1 [b-04-38]
0.66 | 44 | C[C@H]1CN(C(=O)c2ccon2)CCN1[C@H]1C[C@@H](C(=O)Nc2nc3ccc(-c4cnc(CO[C@H]5CCC[C@@H]5O)nc4)cc3s2)C1 [b-04-39]
0.89 | 25 | Cc1cc(C(=O)N2CCN([C@H]3C[C@@H](C(=O)Nc4nc5ccc(-c6cnc(CO[C@H]7CCC[C@@H]7O)nc6)cc5s4)C3)[C@@H](C)C2)cc(C)n1 [b-04-40]
0.69 | 76 | CCCOCc1ncc(-c2ccc3nc(NC(=O)[C@H]4C[C@@H](N5CCN(C(=O)c6cc(F)ccn6)C[C@@H]5C)C4)sc3c2)cn1 [b-04-41]
0.49 | 64 | CCCOCc1ncc(-c2ccc3nc(NC(=O)[C@H]4C[C@@H](N5CCN(C(=O)c6cc(C)ccn6)C[C@@H]5C)C4)sc3c2)cn1 [b-04-42]
0.65 | 96 | CCCOCc1ncc(-c2ccc3nc(NC(=O)[C@H]4C[C@@H](N5CCN(C(=O)c6ccncc6Cl)C[C@@H]5C)C4)sc3c2)cn1 [b-04-43]
0.46 | 23 | Cc1ccc(C(=O)N2CCN([C@H]3C[C@@H](C(=O)Nc4nc5ccc(-c6cnc(CO[C@H]7CCC[C@@H]7O)nc6)cc5s4)C3)[C@@H](C)C2)cn1 [b-04-44]
0.66 | 15 | COc1ccc(C(=O)N2CCN([C@H]3C[C@@H](C(=O)Nc4nc5ccc(-c6cnc(CO[C@H]7CCC[C@@H]7O)nc6)cc5s4)C3)[C@@H](C)C2)cn1 [b-04-45]
0.58 | 22 | C[C@H]1CN(C(=O)c2cc(F)ccn2)CCN1[C@H]1C[C@@H](C(=O)Nc2nc3ccc(-c4cnc(CO[C@H]5CCC[C@@H]5O)nc4)cc3s2)C1 [b-04-46]
0.54 | 26 | Cc1ccnc(C(=O)N2CCN([C@H]3C[C@@H](C(=O)Nc4nc5ccc(-c6cnc(CO[C@H]7CCC[C@@H]7O)nc6)cc5s4)C3)[C@@H](C)C2)c1 [b-04-47]
0.52 | 35 | C[C@H]1CN(C(=O)c2ccncc2Cl)CCN1[C@H]1C[C@@H](C(=O)Nc2nc3ccc(-c4cnc(CO[C@H]5CCC[C@@H]5O)nc4)cc3s2)C1 [b-04-48]
1.9 | 48 | CC(=O)N1CCN([C@H]2C[C@@H](C(=O)Nc3nc4ccc(-c5cnc(CO[C@H]6CCC[C@@H]6O)nc5)cc4s3)C2)[C@@H](C)C1 [b-05-01, (1R,3s)-3-((S)-4-Acetyl-2-methylpiperazin-1-yl)-N-(6-(2-((((1S,2S)-2-hydroxycyclopentyl)oxy)methyl)pyrimidin-5-yl)benzo[d]thiazol-2-yl)cyclobutane-1-carboxamide]
2.47 | 56 | C[C@H]1CN(C(=O)C2CC2)CCN1[C@H]1C[C@@H](C(=O)Nc2nc3ccc(-c4cnc(CO[C@H]5CCC[C@@H]5O)nc4)cc3s2)C1 [b-05-02]

IC50 (human IRAK-4) [nM] | IC50 [1] [nM] | Structure (SMILES)
1.81 | 50 | COCC(=O)N1CCN([C@H]2C[C@@H](C(=O)Nc3nc4ccc(-c5cnc(CO[C@H]6CCC[C@@H]6O)nc5)cc4s3)C2)[C@@H](C)C1 [b-05-03]
4.38 | 24 | C[C@H]1CN(C(=O)c2ccccc2)CCN1[C@H]1C[C@@H](C(=O)Nc2nc3ccc(-c4cnc(CO[C@H]5CCC[C@@H]5O)nc4)cc3s2)C1 [b-05-04]
1.95 | 50 | CCC(=O)N1CCN([C@H]2C[C@@H](C(=O)Nc3nc4ccc(-c5cnc(CO[C@H]6CCC[C@@H]6O)nc5)cc4s3)C2)[C@@H](C)C1 [b-05-05]
2.25 | 46 | CC(C)C(=O)N1CCN([C@H]2C[C@@H](C(=O)Nc3nc4ccc(-c5cnc(CO[C@H]6CCC[C@@H]6O)nc5)cc4s3)C2)[C@@H](C)C1 [b-05-06]
2.51 | 44 | C[C@H]1CN(C(=O)C2CCC2)CCN1[C@H]1C[C@@H](C(=O)Nc2nc3ccc(-c4cnc(CO[C@H]5CCC[C@@H]5O)nc4)cc3s2)C1 [b-05-07]
2.13 | 44 | C[C@H]1CN(C(=O)N2CCC2)CCN1[C@H]1C[C@@H](C(=O)Nc2nc3ccc(-c4cnc(CO[C@H]5CCC[C@@H]5O)nc4)cc3s2)C1 [b-05-09]
4.19 | 46 | C[C@H]1CN(C(=O)Nc2ccccc2)CCN1[C@H]1C[C@@H](C(=O)Nc2nc3ccc(-c4cnc(CO[C@H]5CCC[C@@H]5O)nc4)cc3s2)C1 [b-06-02]
2.34 | 58 | C[C@H]1CN(CC(F)(F)F)CCN1C1CC(C(=O)Nc2nc3ccc(-c4cnc(CO[C@H]5CCC[C@@H]5O)nc4)cc3s2)C1 (stereo partly drawn) [b-07-01, N-(6-(2-((((1S,2S)-2-Hydroxycyclopentyl)oxy)methyl)pyrimidin-5-yl)benzo[d]thiazol-2-yl)-3-((S)-2-methyl-4-(2,2,2-trifluoroethyl)piperazin-1-yl)cyclobutane-1-carboxamide]
1.97 | 56 | C[C@H]1CN(C2CC2)CCN1C1CC(C(=O)Nc2nc3ccc(-c4cnc(CO[C@H]5CCC[C@@H]5O)nc4)cc3s2)C1 (stereo partly drawn) [b-08-01, 3-((S)-4-Cyclopropyl-2-methylpiperazin-1-yl)-N-(6-(2-((((1S,2S)-2-hydroxycyclopentyl)oxy)methyl)pyrimidin-5-yl)benzo[d]thiazol-2-yl)cyclobutane-1-carboxamide]
3.7 | 110 | COc1c(-c2cnc(CO[C@H]3CCC[C@@H]3O)nc2)ccc2nc(NC(=O)[C@@H]3C[C@H]3C)sc12 [c-02-01]
3.35 | 261 | COc1c(-c2cnc(CO[C@H]3CCC[C@@H]3O)nc2)ccc2nc(NC(=O)[C@H]3C[C@H]3F)sc12 [c-02-04]
4.64 | 175 | COc1c(-c2cnc(CO[C@H]3CCC[C@@H]3O)nc2)ccc2nc(NC(=O)[C@H]3C[C@@](C)(O)C3)sc12 [c-02-05]
2.13 | 194 | COc1c(-c2cnc(CO[C@H]3CCC[C@@H]3O)nc2)ccc2nc(NC(=O)C3CC34CC4)sc12 (some centres unmarked) [c-02-06]
1.56 | 76 | COc1c(-c2cnc(CO[C@H]3CCC[C@@H]3O)nc2)ccc2nc(NC(=O)C3CC(OC(C)(C)C)C3)sc12 (some centres unmarked) [c-02-07]
2.44 | 196 | COc1c(-c2cnc(CO[C@H]3CCC[C@@H]3O)nc2)ccc2nc(NC(=O)[C@@H]3C[C@@H]3F)sc12 [c-02-08]
16.6 | 49 | COc1c(-c2cnc(CO[C@H]3CCC[C@@H]3O)nc2)ccc2nc(NC(=O)[C@H]3C[C@@H](N4CCN(C(=O)OC(C)(C)C)C[C@@H]4C)C3)sc12 [c-03-01, tert-Butyl (S)-4-((1s,3R)-3-((6-(2-((((1S,2S)-2-hydroxycyclopentyl)oxy)methyl)pyrimidin-5-yl)-7-methoxybenzo[d]thiazol-2-yl)carbamoyl)cyclobutyl)-3-methylpiperazine-1-carboxylate]
2.36 | 13 | COc1c(-c2cnc(CO[C@H]3CCC[C@@H]3O)nc2)ccc2nc(NC(=O)[C@H]3C[C@@H](N4CCN(C(=O)c5ccnc(C)c5)C[C@@H]4C)C3)sc12 [c-03-02, (1R,3s)-N-(6-(2-((((1S,2S)-2-Hydroxycyclopentyl)oxy)methyl)pyrimidin-5-yl)-7-methoxybenzo[d]thiazol-2-yl)-3-((S)-2-methyl-4-(2-methylisonicotinoyl)piperazin-1-yl)cyclobutane-1-carboxamide]
2.54 | 230 | COCC(=O)N1CCN([C@H]2C[C@@H](C(=O)Nc3nc4ccc(-c5cnc(CO[C@H]6CCC[C@@H]6O)nc5)c(OC)c4s3)C2)[C@@H](C)C1 [c-03-03]
2.69 | 320 | COCCOCC(=O)N1CCN([C@H]2C[C@@H](C(=O)Nc3nc4ccc(-c5cnc(CO[C@H]6CCC[C@@H]6O)nc5)c(OC)c4s3)C2)[C@@H](C)C1 [c-03-04]
4.04 | 115 | COc1c(-c2cnc(CO[C@H]3CC(F)(F)C[C@@H]3O)nc2)ccc2nc(NC(=O)C3CC3)sc12 [c-04-01, N-(6-(2-((((1S,2S)-4,4-Difluoro-2-hydroxycyclopentyl)oxy)methyl)pyrimidin-5-yl)-7-methoxybenzo[d]thiazol-2-yl)cyclopropanecarboxamide]

From patent US20240025893A1, “PYRIMIDINE-AND NITROGEN-CONTAINING BICYCLIC COMPOUND” (Asahi Kasei Pharma Corporation, priority 2020, published 2024)
